Experimental data taken from US4840785A, “Mammal intestinal hormone precursor and its use” (priority 1985, dated 1989).
Where “and” joins values, the source holds several entries; their conditions need not be identical. Equal values may be shown once. No end group written: not given here.

Key:
[1] = system: pancreas of the anesthetized cat; conditions: standard used for comparison; cited from earlier work
[2] = system: pancreas of the anesthetized cat; test: secretin bioassay: stimulation of secretion of alkali in the pancreatic juice in the anesthetized cat; format: in vivo
Protocol: The biological activity was measured by the ability to stimulate the secretion of alkali in the pancreatic juice in the anesthetized cat (Mutt, v. and Soderberg, U. On the assay of secretin. Ark.Kem. 15, 63-68, 1959). The sample was compared to a secretin standard with an established activity of 3500 units per mg. […] Proteolytic fragmentation

Question: With “secretin (HSDGTFTSELSRLRDSARLQRLLQGLV-NH2; UniProt P63298 33-59, looked up) [porcine secretin, intestinal hormone peptide composed of 27 amino acid residues, C-terminal valine amidated]” as the substance, how does the “established activity of secretin standard” value [1] read?
Answer: 3500 units per mg

Question: And the “ALKALI SECRETED” value ([2]; Cat. 1, dose 47 pmole)?
Answer: 130 μequiv. and 116 μequiv.

Question: What about the “ALKALI SECRETED per dose” value ([2]; Cat. 1, dose 47 pmole) of the same substance?
Answer: 2.7 μequiv.pmole and 2.5 μequiv.pmole

Question: What about the “ALKALI SECRETED” value ([2]; Cat. 1, dose 94 pmole) of the same substance?
Answer: 182 μequiv. and 170 μequiv.

Question: What about the “ALKALI SECRETED per dose” value ([2]; Cat. 1, dose 94 pmole) of the same substance?
Answer: 1.9 μequiv.pmole and 1.8 μequiv.pmole

Question: What about the “ALKALI SECRETED” value ([2]; Cat. 2, dose 47 pmole) of the same substance?
Answer: 110 μequiv.

Question: What about the “ALKALI SECRETED per dose” value ([2]; Cat. 2, dose 47 pmole) of the same substance?
Answer: 2.3 μequiv.pmole

Question: And the “ALKALI SECRETED” value ([2]; Cat. 2, dose 94 pmole)?
Answer: 150 μequiv.

Question: And the “ALKALI SECRETED per dose” value ([2]; Cat. 2, dose 94 pmole)?
Answer: 1.6 μequiv.pmole
